As usually defined, the IC50 is the point on the concentration scale where inhibition reaches its midpoint. By melting point is commonly meant the temperature of the solid-liquid transition.

Data set [1] has as its target T1, human glucocorticoid receptor (hGR) (Homo sapiens, UniProt P04150).
T1 construct: made in house; host or cells: Sf21 insect cells infected with baculovirus hGR, OR IM9 lymphoblast cell line (endogenous hGR)
T1 sequence (P04150 1-777): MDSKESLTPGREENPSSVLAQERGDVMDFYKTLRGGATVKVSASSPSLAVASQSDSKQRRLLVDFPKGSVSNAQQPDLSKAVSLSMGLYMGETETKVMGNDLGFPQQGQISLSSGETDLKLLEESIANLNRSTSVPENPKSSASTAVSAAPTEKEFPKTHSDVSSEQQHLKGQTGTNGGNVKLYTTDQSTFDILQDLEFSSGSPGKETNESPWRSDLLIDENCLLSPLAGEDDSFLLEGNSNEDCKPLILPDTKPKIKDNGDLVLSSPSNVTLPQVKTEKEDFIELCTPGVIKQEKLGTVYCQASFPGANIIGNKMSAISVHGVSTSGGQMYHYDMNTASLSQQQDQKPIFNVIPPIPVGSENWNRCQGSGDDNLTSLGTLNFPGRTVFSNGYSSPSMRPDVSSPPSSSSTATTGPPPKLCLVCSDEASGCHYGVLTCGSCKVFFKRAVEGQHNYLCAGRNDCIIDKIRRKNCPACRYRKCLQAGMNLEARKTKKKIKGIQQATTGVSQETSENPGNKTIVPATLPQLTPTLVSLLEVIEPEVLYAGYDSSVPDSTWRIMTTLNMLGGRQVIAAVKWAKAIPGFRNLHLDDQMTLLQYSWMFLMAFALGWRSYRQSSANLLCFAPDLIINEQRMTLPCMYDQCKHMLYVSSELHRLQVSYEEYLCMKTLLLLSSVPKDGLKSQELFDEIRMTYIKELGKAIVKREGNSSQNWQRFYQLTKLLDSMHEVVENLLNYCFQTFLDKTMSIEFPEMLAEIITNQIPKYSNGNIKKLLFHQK
In words: human glucocorticoid receptor binding assay (displacement of 3(H) Triamcinolone acetonide). The following applies: for hGR, value given as %: concentration not given.

For data set [2], the system named is human progesterone receptor (hPR). In words: human progesterone receptor binding assay (displacement of 3(H) R5020 Promegestone). As to the method: A human progesterone receptor binding assay was performed in order to determine selectivity of the compounds, as follows. Human progesterone receptors were prepared from either insect cells (SF21) infected with baculovirus hPR A, or from a breast cancer cell line, T47D, which expresses high levels of endogenous hPR. The receptor binding reactions, with or without test compounds, were set up in 96-well microtiter plates which were previously siliconized with SIGMACOTE. The binding components, 3(H) R5020 Promegestone, a high affinity ligand for the progesterone receptors, glycerol/molybdate-containing buffer and unlabeled compounds were added to the wells using a combination of BIOMEK laboratory automation system and repeat pipettes. After overnight incubation, the samples were precipitated with polyethylene glycol and filtered through Whatman GF/F paper using a TOMTEK cell harvester. The filter mate with 96 samples were bound to a solid-phase scintillant and directly counted in the BETAPLATE counter. Only those compounds that were active in the human glucocorticoid receptor assay set forth in Example 30 were used for progesterone receptor binding to determine cross-reactivity profiles, if any. The activity of test compounds to displace 3(H) R5020 binding to hPR is expressed as percent inhibition at the two concentrations, 10^−6 and 10^−5 Molar.

Data set [3] relates to oxazolone-induced ear swelling (MOCH) in albino male CD-1 mice. Nature of the data set: mouse oxazolone-induced contact hypersensitization (MOCH) ear swelling. It is filed as in vivo. The note with it: for Oxazolone Ear Swelling (MOCH) % inhibition vs. Vehicle at 1 mg / inhibition in vivo at 1 mg: topical to mouse ear, one hour after oxazolone challenge, ear biopsy weight at 24 hours; for Oxazolone Ear swelling % Inhibition vs. Vehicle: topical mouse ear; for dose-related activity in the oxazolone model (in words) / topical antiinflammatory activity in the oxazolone model (in words): topical; for dose-related activity in the oxazolone model (in words): doses 0.1-3%; for topical antiinflammatory activity in the oxazolone model (in words): mouse ear; for inhibition in vivo at 1 mg: read-out: Oxazolone Ear Swelling (MOCH) % inhibition vs. Vehicle at 1 mg. The method in brief: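 Male CD-1 mice aged 7–9 weeks were sensitised on the abdomen with 3% oxazolone on Day 0 and challenged on Day 5 with 2% oxazolone on the left ear. Compounds in ethanol/propylene glycol 70:30 were applied topically to that ear 1 h after challenge. At 24 h, the weight difference between 7 mm left and right ear biopsies gave the measure of inhibition.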

Data set [4] deals with TPA-induced ear edema in albino male CD1 mice. Nature of the data set: TPA (phorbol ester)-induced ear edema. Type of data set: in vivo. The note with it: dose 1%, topical mouse ear, 5.5 hours after TPA. As to the method: Several triphenylpropanamide compounds of this invention, having varying affinities for the human glucocorticoid receptor, were tested for topical antiinflammatory activity in mouse ear inflammation models. […] Compounds having receptor affinities closer to hydrocortisone were as nearly active as hydrocortisone in suppressing mouse oxazolone-induced contact hypersensitization (MOCH) and phorbol ester-induced ear edema. The in vivo studies of this example were conducted as follows.
Albino male CD1 mice, 7-9 weeks old were used in this example. A 0.005% (w/v) TPA or 20% (w/v) arachidonic acid (AA) solution was made in acetone. A 20 μl volume of the TPA or AA was applied to the dorsal left ear of the mouse. Compounds of this invention were placed in a composition containing ethanol/propylene glycol at a ratio of 70:30 were applied to the left ear of each mouse in an amount of 20 μl immediately after application of the TPA or AA. The right ear was not treated. The mice were sacrificed by carbon dioxide inhalation 5.5 hours after administration of TPA and one hour after administration of AA, the left and right ears were removed and a 7 mm biopsy was removed from each ear and weighed. The difference in biopsy weights between the right and left ears was calculated. Antiinflammatory effects of compounds were evident as an inhibition of the increase in ear weight.

Regarding `CC(C)CC(=O)NCC1(c2ccccc2)CC1(c1ccccc1)c1ccccc1` (stereo not drawn) [Compound 85], the “hGR, value given as %” value in data set [1] is on record as 68%. Besides, in data set [2], the “hPR % inh 10 μM” value worked out at 7.2s %. The “Oxazolone Ear Swelling (MOCH) % inhibition vs. Vehicle at 1 mg” value in data set [3] amounted to 16%.
`C[C@]12CCC(=O)C=C1CC[C@@H]1[C@@H]2[C@@H](O)C[C@@]2(C)[C@H]1CC[C@]2(O)C(=O)CO` [hydrocortisone, reference compound]: the “Oxazolone Ear swelling % Inhibition vs. Vehicle” value in data set [3] (Experiment 1, dose 1%) is given as 78.9%; in data set [3] (Experiment 2, dose 1%) it was 58.2%. For the same compound, the “% Inhibition of TPA Ear Edema vs. Vehicle” value in data set [4] amounted to 80.6%.
Turning to `O=C(NCc1ccccc1)NCC1(c2ccccc2)CC1(c1ccccc1)c1ccccc1` (stereo not drawn) [Compound 95], in data set [1], the “hGR, value given as %” value stood at 4%. The “hPR % inh 10 μM” value in data set [2] was −14.3%. Besides, the “Oxazolone Ear Swelling (MOCH) % inhibition vs. Vehicle at 1 mg” value in data set [3] is 16%.
Regarding `O=C(NCC1(c2ccccc2)CC1(c1ccccc1)c1ccccc1)Nc1ccccc1F` (stereo not drawn) [Compound 93], in data set [1], the “hGR, value given as %” value is recorded as 17%. Moreover, the “hPR % inh 10 μM” value in data set [2] stood at 33.9%. Moreover, in data set [3], the “Oxazolone Ear Swelling (MOCH) % inhibition vs. Vehicle at 1 mg” value was determined as 26%.
As for `Cc1ccc(CC(=O)NCC(c2ccccc2)C(c2ccc(F)cc2)c2ccc(F)cc2)s1` (stereo not drawn) [Compound 32], the IC50 in data set [1] came to 7 nM. In addition, the “Oxazolone Ear swelling % Inhibition vs. Vehicle” value in data set [3] (Experiment 2, dose 0.1%) was 11.2%; in data set [3] (Experiment 2, dose 0.3%) it was 18.95%; in data set [3] (Experiment 2, dose 1%) it was 31.45%; in data set [3] (Experiment 2, dose 3%), 36.5%. Further, the “dose-related activity in the oxazolone model (in words)” value in data set [3] was “inhibited ear swelling in a dose-dependent manner”. Moreover, the “topical antiinflammatory activity in the oxazolone model (in words)” value (from here on “topical antiinflammatory activity”) in data set [3] is on record as “equiactive with hydrocortisone”. Further, the “% Inhibition of TPA Ear Edema vs. Vehicle” value in data set [4] is reported as 60.0%.
Turning to `O=C(Cc1cccs1)NCC(c1ccccc1)C(c1ccccc1)c1ccccc1` (stereo not drawn) [Compound 29, N-(2-thiophrne)acetyl-2,3,3-triphenylpropylamine], the IC50 in data set [1] came to 8 nM. The “hPR % inh 10 μM” value in data set [2] is 28.3%. Also, the “Oxazolone Ear swelling % Inhibition vs. Vehicle” value in data set [3] (Experiment 1, dose 0.1%) is on record as 4.3%; in data set [3] (Experiment 1, dose 0.3%), 34.7%; in data set [3] (Experiment 1, dose 1%) it was 49.9%; in data set [3] (Experiment 1, dose 3%), 66.5%. Moreover, the “dose-related activity in the oxazolone model (in words)” value in data set [3] is given as “inhibited ear swelling in a dose-dependent manner”. Besides, in data set [3], the “topical antiinflammatory activity” value is listed as “equiactive with hydrocortisone”. In addition, the “% Inhibition of TPA Ear Edema vs. Vehicle” value in data set [4] came to 64.9%.
With `COc1ccccc1NC(=O)NCC1(c2ccccc2)CC1(c1ccccc1)c1ccccc1` (stereo not drawn) [Compound 94], the “hGR, value given as %” value in data set [1] is on record as 13%. Moreover, the “hPR % inh 10 μM” value in data set [2] was −18.6%. The “Oxazolone Ear Swelling (MOCH) % inhibition vs. Vehicle at 1 mg” value in data set [3] is 35%.
For the compound `O=C(Cc1cccs1)NCC(c1cccs1)C(c1ccccc1)c1ccccc1` (stereo not drawn) [Compound 46], the melting point lay in the range of 138.2 to 139.9 °C. Besides, the IC50 in data set [1] was determined as 723 nM. For the same compound, the inhibition in vivo at 1 mg in data set [3] was 4%.
Take `O=C(Cc1ccccc1)NCC(c1ccccc1)C(c1ccccc1)c1ccccc1` (stereo not drawn) [Compound 1]: the melting point lay within 146 to 147 °C. Also, the IC50 in data set [1] is 890 nM. Further, the “hPR % inh 10 μM” value in data set [2] is reported as −0.2%.
As to `O=C(Cc1ccc(C(F)(F)F)cc1)NCC(c1ccccc1)C(c1ccccc1)c1ccccc1` (stereo not drawn) [Compound 12], the IC50 in data set [1] came to 1500 nM. Also, the “hPR % inh 10 μM” value in data set [2] is on record as 15%.
As for `O=C(CCCc1ccccc1)NCC(c1ccccc1)C(c1ccccc1)c1ccccc1` (stereo not drawn) [Compound 24], the IC50 in data set [1] came out at 670 nM. Besides, the “hPR % inh 10 μM” value in data set [2] was 10%.
For `O=C(Cc1ccccc1)NCC(c1ccccc1)C(c1ccc(F)cc1)c1ccc(F)cc1` (stereo not drawn) [Compound 15], the melting point fell in the range of 87.5 to 89.7 °C. The IC50 in data set [1] turned out to be 21 nM. In data set [3], the inhibition in vivo at 1 mg came to 47% and the “topical antiinflammatory activity” value is reported as “moderate topical activity”.
On to `COc1ccccc1CCC(=O)NCC(c1ccc(Cl)cc1)C(c1ccccc1)c1ccccc1` (stereo not drawn) [Compound 21], for which the melting point is 122.2 to 123.5 °C. Moreover, the IC50 in data set [1] came out at 57 nM. For the same compound, the “hPR % inh 10 μM” value in data set [2] came out at 21%.
Take `O=C(CCCc1cccs1)NCC(c1ccccc1)C(c1ccccc1)c1ccccc1` (stereo not drawn) [Compound 37]: the IC50 in data set [1] amounted to 500 nM. Further, the “hPR % inh 10 μM” value in data set [2] is 4%.

Source of the values: patent publication US6509369B2, “Anti-inflammatory compounds” (Ortho-McNeil Pharmaceutical, Inc., priority 1997, dated 2003).
